Data as given in PubChem BioAssay (NCI).
Several values for one entry are separate records, joined by “and”; a condition that tells them apart may be missing. Identical values can stand only once.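 Compound exposure: 48 hours, 5 concentrations, 96-well plates. GI50 = concentration required for 50% inhibition of growth. The concentration for full growth arrest is given as TGI.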

How the values were obtained:
Assay in all cases: growth of human tumour cells (NCI), 48 h
[1] = system: DU-145 prostate
[2] = system: NCI/ADR-RES ovarian
[3] = system: T-47D breast
[4] = system: HS 578T breast
[5] = system: MCF7 breast
[6] = system: PC-3 prostate
[7] = system: EKVX NSCLC
[8] = system: COLO 205 colon
[9] = system: K-562 leukemia
[10] = system: SK-MEL-5 melanoma

| SMILES | GI50 [1] [µM] | TGI [1] | GI50 [2] [µM] | TGI [2] [µM] | GI50 [3] [µM] | TGI [3] | GI50 [4] [µM] | TGI [4] [µM] | GI50 [5] [µM] | TGI [5] | GI50 [6] [µM] | TGI [6] | GI50 [7] [µM] | TGI [7] | GI50 [8] [µM] | TGI [8] | GI50 [9] [µM] | GI50 [10] [µM] | TGI [10] | TGI [9] |
| --- | --- | --- | --- | --- | --- | --- | --- | --- | --- | --- | --- | --- | --- | --- | --- | --- | --- | --- | --- | --- |
| CC[C@@]1(O)C(=O)NCc2c1cc1n(c2=O)Cc2cc3c(N)cccc3nc2-1 | 1.04 | 17.9 µM | 2.29 | 38.5 | 0.623 | > 19.9 µM | > 17.4 | > 64.3 | 0.787 | > 100 µM | 9.99 | > 55.4 µM | 16.5 | > 51.7 µM | 8.35 | > 48.1 µM | 3.09 | 1.23 | 17.3 µM | – |
| COc1ccccc1NC(=O)n1nc(N)c2ccccc21 | > 100 | > 100 µM | 87.4 | > 100 | 12.1 | > 100 µM | 36.3 | > 100 | 0.0842 | 4.32 µM | 64.1 | > 100 µM | 55.9 | > 100 µM | > 100 | > 100 µM | 99.8 | > 87.9 | > 100 µM | > 100 µM |
| COc1cc2c3c(c1)c1cc(OC)c(OC)cc1c[n+]3CC2 | 40.3 | 50 µM and > 100 µM | > 100 | > 100 | 6.74 | 34.2 µM and 72.4 µM | – | 20.6 | 21.3 | 50 µM and > 100 µM | 29.9 | 50 µM and > 100 µM | > 100 | 50 µM and > 100 µM | 14.8 | 50 µM and > 100 µM | 40.5 | 11.8 | 50 µM and 36.6 µM | 50 µM and > 100 µM |
| CCOC(=O)C(=Cc1ccccc1[N+](=O)[O-])C(=O)OCC | 3.22 | 12 µM | 2.59 | 7.8 | 3.68 | 17.5 µM | 2.71 | 11.6 | 2.52 | 14.2 µM | 6.69 | 34.7 µM | 6.61 | 20.9 µM | 2.14 | 3.85 µM | 3.64 | 1.33 | 2.66 µM | > 100 µM |
| N#Cc1c(-c2ccccc2)cc(-c2ccc(Nc3nc(Nc4ccc(Cl)cc4)nc(Nc4ccc(Cl)cc4)n3)cc2)nc1N | 4.67 | 20.4 µM | 16.2 | > 100 | 1.6 | 4.37 µM | 1.2 | 6.02 | 1.56 | 4.16 µM | 1.89 | 6.76 µM | 16.6 | 48.8 µM | 1.78 | 3.96 µM | 2.15 | 1.42 | 2.78 µM | 7.59 µM |
